Experimental data: US10538555B2, “Macrocyclic inhibitors of the PD-1/PD-L1 and CD80(B7-1)/PD-L1 protein/protein interactions” (BRISTOL-MYERS SQUIBB COMPANY, priority 2014, dated 2020)
Like-named read-outs stand apart in the source and are kept apart here. *1 amine or outer side, *2 acyl side, *3 side chain or, on linkers, in order; H or OH if unused. Where a SMILES comes first, the peptide text is derived from it. Bridges are numbered along the chain shown (N, C = ends). [ ]: non-standard residue; d: D form. ξ: configuration not given here. Trp(1-CH2COOH) = N[C@@H](Cc1cn(CC(=O)O)c2ccccc12)C(=O)O; Phe(3,4,5-F3) = N[C@@H](Cc1cc(F)c(F)c(F)c1)C(=O)O; Morpholine(3S-CO) = O=C(O)[C@@H]1COCCN1; Phe(4-Me) = Cc1ccc(C[C@H](N)C(=O)O)cc1; d(cisHyp) = O=C(O)[C@H]1C[C@@H](O)CN1; NMeY = CN[C@@H](Cc1ccc(O)cc1)C(=O)O; Hyp = O=C(O)[C@@H]1C[C@@H](O)CN1; NMeF = CN[C@@H](Cc1ccccc1)C(=O)O; X1 = O=C([C@H]1COCCN1[*:1])[*:2]; 4Pal = N[C@@H](Cc1ccncc1)C(=O)O; NMeNle = CCCC[C@H](NC)C(=O)O; dPip = O=C(O)[C@H]1CCCCN1; hSer = N[C@@H](CCO)C(=O)O; NMeA = CN[C@@H](C)C(=O)O; Dab = NCC[C@H](N)C(=O)O; Dap = NC[C@H](N)C(=O)O; ξC = NC(CS)C(=O)O; Sar = CNCC(=O)O

Biological target: T1, Human PD-L1/PD-1 (Homo sapiens, UniProt Q9NZQ7)
T1 construct: TVMV protease cleavage site (C); made in house; host or cells: HEK293T cells
Assay: HTRF Human PD-L1/PD-1 binding assay (PD-1-Ig/PD-L1-His)
Settings: PD-L1-His 10 nM, PD-1-Ig 20 nM
Procedure, shortened: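 Step 1: compound with PD-L1-His (10 nM final), 15 min. Step 2: PD-1-Ig (20 nM final), 15 min. Step 3: Eu-cryptate anti-Ig (1 nM) plus APC anti-His (20 nM), 30 min equilibration. Signal taken as 665 nm/620 nm ratio.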

[1] = class symbol, read-out: HTRF Human PD-L1/PD-1 Binding Assay IC50 Range

T1 sequence (Q9NZQ7 with tags, fused parts or gaps): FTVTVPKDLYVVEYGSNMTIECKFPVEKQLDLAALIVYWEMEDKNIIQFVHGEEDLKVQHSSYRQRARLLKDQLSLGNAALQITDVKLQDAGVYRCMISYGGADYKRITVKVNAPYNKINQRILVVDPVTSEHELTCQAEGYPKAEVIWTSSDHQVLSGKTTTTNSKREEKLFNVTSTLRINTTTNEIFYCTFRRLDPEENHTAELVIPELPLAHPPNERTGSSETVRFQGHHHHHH

Structure (SMILES) | IC50 [1] [nM] | IC50 (read-out: HTRF Human PD-L1/PD-1 Binding Assay IC50) [nM]
CCCC[C@H]1C(=O)N2CCC[C@@H]2C(=O)N2CCOC[C@H]2C(=O)N[C@@H](C(C)C)C(=O)N(C)[C@@H](Cc2ccccc2)C(=O)N[C@@H](Cc2ccc(O)cc2)C(=O)N2CCCC[C@@H]2C(=O)N[C@@H](Cc2c[nH]c3ccccc23)C(=O)N[C@@H](Cc2ccc(O)cc2)C(=O)N[C@@H](CC(C)C)C(=O)N[C@H](C(=O)NCC(N)=O)CSCC(=O)N[C@@H](Cc2cc(F)c(F)c(F)c2)C(=O)N(C)[C@@H](Cc2ccccc2)C(=O)N1C [Example 3219] ({CH2CO}-[Phe(3,4,5-F3)][NMeF][NMeNle][dP][Morpholine(3S-CO)]V[NMeF]Y[dPip]WYLCG-NH2; thioether N-13) | 10 to 99.9 | –
CCCC[C@H]1C(=O)N(C)CC(=O)N[C@@H](CC(=O)O)C(=O)N[C@@H](C)C(=O)N(C)[C@@H](Cc2ccccc2)C(=O)N[C@@H](Cc2ccc(O)cc2)C(=O)N2CCC[C@@H]2C(=O)N[C@@H](Cc2c[nH]c3ccccc23)C(=O)N[C@@H](Cc2ccc(O)cc2)C(=O)N[C@@H](CC(C)C)C(=O)N[C@H](C(=O)NCC(N)=O)CSCC(=O)N[C@@H](Cc2ccccc2)C(=O)N(C)[C@@H](Cc2ccccc2)C(=O)N1C [Example 10080] ({CH2CO}-F[NMeF][NMeNle][Sar]DA[NMeF]Y[dP]WYLCG-NH2; thioether N-13) | 10 to 99.9 | –
CCCC[C@H]1C(=O)N2C[C@H](O)C[C@@H]2C(=O)N[C@@H](CC(=O)O)C(=O)N[C@@H](C(C)C)C(=O)N(C)[C@@H](Cc2ccccc2)C(=O)N[C@@H](CC(=O)O)C(=O)N2CCOC[C@@H]2C(=O)N[C@@H](Cc2c[nH]c3ccccc23)C(=O)N[C@@H](Cc2ccc(O)cc2)C(=O)N[C@@H](CCO)C(=O)N[C@H](C(=O)NCC(N)=O)CSCC(=O)N[C@@H](Cc2cc(F)c(F)c(F)c2)C(=O)N(C)[C@@H](Cc2ccccc2)C(=O)N1C [Example 10157] ({CH2CO}-[Phe(3,4,5-F3)][NMeF][NMeNle][d(cisHyp)]DV[NMeF]D[X1]WY[hSer]CG-NH2; thioether N-13) | – | 4.1
CCCC[C@H]1C(=O)N(C)CC(=O)N[C@@H](CC(=O)O)C(=O)N[C@@H](C(C)C)C(=O)N(C)[C@@H](Cc2ccccc2)C(=O)N[C@@H](Cc2ccc(O)cc2)C(=O)N(C)CC(=O)N[C@@H](Cc2c[nH]c3ccccc23)C(=O)N[C@@H](Cc2ccc(O)cc2)C(=O)N[C@@H](CC(C)C)C(=O)N[C@H](C(=O)NCC(N)=O)CSCC(=O)N[C@@H](Cc2ccncc2)C(=O)N(C)[C@@H](Cc2ccccc2)C(=O)N1C [Example 3242] ({CH2CO}-[4Pal][NMeF][NMeNle][Sar]DV[NMeF]Y[Sar]WYLCG-NH2; thioether N-13) | 100 to 990 | –
CCCC[C@H]1C(=O)N(C)[C@@H](CCCC)C(=O)N[C@@H](CC(C)C)C(=O)N[C@H](C(N)=O)CSCC(=O)N[C@@H](Cc2ccc(O)cc2)C(=O)N(C)[C@@H](C)C(=O)N[C@@H](CC(N)=O)C(=O)N2CCC[C@H]2C(=O)N[C@@H](CN)C(=O)N[C@@H](CC(C)C)C(=O)N2C[C@H](O)C[C@H]2C(=O)N[C@@H](Cc2c[nH]c3ccccc23)C(=O)N[C@@H](CCC(=O)O)C(=O)N[C@@H](Cc2cn(CC(=O)O)c3ccccc23)C(=O)N1C [Example 6203] ({CH2CO}-Y[NMeA]NP[Dap]L[Hyp]WE[Trp(1-CH2COOH)][NMeNle][NMeNle]LC-NH2; thioether N-14) | 1 to 9.9 | –
CCCC[C@H]1C(=O)N2CCC[C@@H]2C(=O)N[C@@H](CC(=O)O)C(=O)N[C@@H](C(C)C)C(=O)N(C)[C@@H](Cc2ccccc2)C(=O)N[C@@H](CCC(=O)O)C(=O)N2CCOC[C@@H]2C(=O)N[C@@H](Cc2c[nH]c3ccccc23)C(=O)N[C@@H](Cc2ccc(O)cc2)C(=O)N[C@@H](CCC(N)=O)C(=O)N[C@H](C(=O)NCC(N)=O)CSCC(=O)N[C@@H](Cc2cc(F)c(F)c(F)c2)C(=O)N(C)[C@@H](Cc2ccc(O)cc2)C(=O)N1C [Example 10619] ({CH2CO}-[Phe(3,4,5-F3)][NMeY][NMeNle][dP]DV[NMeF]E[X1]WYQCG-NH2; thioether N-13) | 10 to 99.9 | –
CCCC[C@H]1C(=O)N2CCC[C@@H]2C(=O)N[C@@H](CC(=O)O)C(=O)N[C@@H](C(C)C)C(=O)N(C)[C@@H](Cc2ccccc2)C(=O)N[C@@H](CCN)C(=O)N2CCOC[C@@H]2C(=O)N[C@@H](Cc2c[nH]c3ccccc23)C(=O)N[C@@H](Cc2ccc(O)cc2)C(=O)N[C@@H](CCC(N)=O)C(=O)N[C@H](C(=O)NCC(N)=O)CSCC(=O)N[C@@H](Cc2cc(F)c(F)c(F)c2)C(=O)N(C)[C@@H](Cc2ccc(O)cc2)C(=O)N1C [Example 10626] ({CH2CO}-[Phe(3,4,5-F3)][NMeY][NMeNle][dP]DV[NMeF][Dab][X1]WYQCG-NH2; thioether N-13) | 10 to 99.9 | –
CCCC[C@H]1C(=O)N(C)[C@@H](CCCC)C(=O)N[C@@H](CCCNC(=N)N)C(=O)N[C@H](C(=O)NCC(N)=O)CSCC(=O)N[C@@H](Cc2ccc(C)cc2)C(=O)N(C)[C@@H](C)C(=O)N[C@@H](CC(N)=O)C(=O)N2CCC[C@H]2C(=O)N[C@@H](CN)C(=O)N[C@@H](CC(C)C)C(=O)N2C[C@H](O)C[C@H]2C(=O)N[C@@H](Cc2c[nH]c3ccccc23)C(=O)N[C@@H](CO)C(=O)N[C@@H](Cc2c[nH]c3ccccc23)C(=O)N1C [Example 7070] ({CH2CO}-[Phe(4-Me)][NMeA]NP[Dap]L[Hyp]WSW[NMeNle][NMeNle]RCG-NH2; thioether N-14) | 1 to 9.9 | –
CCCC[C@H]1C(=O)N(C)[C@@H](CCCC)C(=O)N[C@@H](CCC(=O)O)C(=O)N[C@H](C(=O)NCC(N)=O)CSCC(=O)N[C@@H](Cc2ccc(O)cc2)C(=O)N(C)[C@@H](C)C(=O)N[C@@H](CC(=O)O)C(=O)N2CCC[C@H]2C(=O)N[C@@H](CO)C(=O)N[C@@H](CCC(=O)O)C(=O)N2C[C@H](O)C[C@H]2C(=O)N[C@@H](Cc2c[nH]c3ccccc23)C(=O)N[C@@H](CCN)C(=O)N[C@@H](Cc2c[nH]c3ccccc23)C(=O)N1C [Example 5252] ({CH2CO}-Y[NMeA]DPSE[Hyp]W[Dab]W[NMeNle][NMeNle]ECG-NH2; thioether N-14) | 1 to 9.9 | –
CCCC[C@H]1C(=O)N(C)[C@@H](C)C(=O)N[C@@H](CCCNC(=N)N)C(=O)NC(C(=O)NCC(N)=O)CSCC(=O)N[C@@H](Cc2ccc(O)cc2)C(=O)N(C)[C@@H](C)C(=O)N[C@@H](CC(N)=O)C(=O)N2CCC[C@H]2C(=O)N[C@@H](CO)C(=O)N[C@H](CC(C)C)C(=O)N2C[C@H](O)C[C@H]2C(=O)N[C@@H](Cc2c[nH]c3ccccc23)C(=O)N[C@@H](CO)C(=O)N[C@@H](Cc2c[nH]c3ccccc23)C(=O)N1C (stereo partly drawn) [Example 9115] ({CH2CO}-Y[NMeA]NPS[dL][Hyp]WSW[NMeNle][NMeA]R[ξC]G-NH2; thioether N-14) | 10 to 99.9 | –
CCCC[C@H]1C(=O)N(C)[C@@H](CCCC)C(=O)N[C@@H](CCC(=O)O)C(=O)N[C@H](C(=O)NCC(N)=O)CSCC(=O)N[C@@H](Cc2ccc(O)cc2)C(=O)N(C)[C@@H](C)C(=O)N[C@@H](CC(=O)O)C(=O)N2CCC[C@H]2C(=O)N[C@@H](CN)C(=O)N[C@@H](CCC(N)=O)C(=O)N2C[C@H](O)C[C@H]2C(=O)N[C@@H](Cc2c[nH]c3ccccc23)C(=O)N[C@@H](CCN)C(=O)N[C@@H](Cc2cn(CC(=O)O)c3ccccc23)C(=O)N1C [Example 6189] ({CH2CO}-Y[NMeA]DP[Dap]Q[Hyp]W[Dab][Trp(1-CH2COOH)][NMeNle][NMeNle]ECG-NH2; thioether N-14) | 1 to 9.9 | –
